Laboratory results: the NIST ThermoML archive (doi:10.1016/j.jct.2013.01.032)
Numbers after ± are expanded uncertainties.

Columns and labels:
[1] = mn = molality of the nth substance listed, in mol/kg; details: 101 kPa, Liquid; for speed of sound: Sing-around technique in a fixed-path interferometer; for mass density: Vibrating tube method
[2] = osmotic coefficient (dimensionless); mn = molality of the nth substance listed, in mol/kg; details: 323.15 K, Liquid, Knauer Osmometer

CCCCn1cc[n+](C)c1.O=S(=O)([O-])C(F)(F)F [1-butyl-3-methylimidazolium trifluoromethanesulfonate] + CC(C)O
[1]
Details	mass density, 293.15 K [kg/m3]	mass density, 308.15 K [kg/m3]	mass density, 323.15 K [kg/m3]	speed of sound, 293.15 K [m/s]	speed of sound, 308.15 K [m/s]	speed of sound, 323.15 K [m/s]
m1 = 0.049	789.81 ± 0.24	777.07 ± 0.25	763.51 ± 0.25	1158.3 ± 0.8	1106.4 ± 0.8	1053.4 ± 0.7
m1 = 0.1	794.52 ± 0.23	781.8 ± 0.2	768.29 ± 0.24	1159.5 ± 0.8	1108 ± 0.8	1055.5 ± 0.7
m1 = 0.152	799.18 ± 0.23	786.48 ± 0.24	772.99 ± 0.24	1160.9 ± 0.8	1109.6 ± 0.8	1057.4 ± 0.7
m1 = 0.207	804.09 ± 0.23	791.39 ± 0.23	777.93 ± 0.24	1162.6 ± 0.8	1111.2 ± 0.8	1059.3 ± 0.8
m1 = 0.254	808.1 ± 0.22	795.41 ± 0.22	781.98 ± 0.23	1163.3 ± 0.8	1112.5 ± 0.8	1060.8 ± 0.8
m1 = 0.51	828.98 ± 0.21	816.33 ± 0.21	803.01 ± 0.22	1168.6 ± 0.8	1119.1 ± 0.8	1068.8 ± 0.8
m1 = 0.754	847.24 ± 0.19	834.61 ± 0.2	821.37 ± 0.2	1173.2 ± 0.8	1124.8 ± 0.8	1075.6 ± 0.8
m1 = 1.006	864.73 ± 0.18	852.1 ± 0.2	838.92 ± 0.19	1178.4 ± 0.8	1130.5 ± 0.8	1082.3 ± 0.8
m1 = 1.525	896.77 ± 0.17	884.17 ± 0.18	871.1 ± 0.2	1188.1 ± 0.9	1142 ± 0.9	1095.6 ± 0.8
m1 = 1.758	910.13 ± 0.16	897.53 ± 0.17	884.5 ± 0.2	1192.5 ± 0.9	1147 ± 0.9	1101.3 ± 0.9
m1 = 2.05	925.34 ± 0.15	912.77 ± 0.16	899.8 ± 0.2	1197.6 ± 0.9	1153.1 ± 0.9	1108.2 ± 0.9
m1 = 2.526	947.75 ± 0.15	935.19 ± 0.15	922.28 ± 0.16	1206 ± 0.9	1162.5 ± 0.9	1118.6 ± 0.9
m1 = 3.011	967.97 ± 0.15	955.42 ± 0.15	942.57 ± 0.16	1214.3 ± 1	1171.5 ± 0.9	1128.5 ± 0.9

[2]
Details	osmotic coefficient
m1 = 0.0255	0.991 ± 0.014
m1 = 0.0473	0.911 ± 0.013
m1 = 0.1132	0.844 ± 0.013
m1 = 0.1803	0.765 ± 0.015
m1 = 0.2949	0.686 ± 0.016
m1 = 0.398	0.624 ± 0.018
m1 = 0.5052	0.588 ± 0.019
m1 = 0.8092	0.518 ± 0.021
m1 = 1.205	0.461 ± 0.023
m1 = 1.615	0.412 ± 0.024
m1 = 2.031	0.391 ± 0.025
m1 = 2.42	0.381 ± 0.025
m1 = 2.829	0.366 ± 0.025
m1 = 3.326	0.356 ± 0.026
